Key:
AT1R = conditions: Barbadin 100 µM; cited from earlier work
ARF6 = molecular target: T1, ARF6 (Homo sapiens, UniProt P62330); experiment: GST-GGA3-PBD pull-down of EGFR-mediated ARF6 activation in MDA-MB-231 cells; format: cell-based; conditions: 50 μM
T1 construct: expressed in transfected cells; host or cells: HEK293SL
Procedure: (§1) Activation of ARF1, ARF6, Ras, and Rho were assessed by using GST pull-down assays. HEK293SL cells were transiently transfected with 3 µg AT1R-flag only (Ras and Rho) or along with 500 ng HA-ARF6 (ARF6) or HA-ARF1 (ARF1). Forty-eight hours later, the HEK293 or MDA-MB-231 cells were serum-starved for 4 h with DMEM containing 20 mM HEPES then pretreated with DMSO or Rasarfin (50 µM) for 30 min. Cells were then stimulated with 1 µM AngII or 100 ng/ml EGF for 0 and 2 min. Cells were then washed once with ice-cold PBS and lysed for 30 min at 4 °C in 300 µl of lysis buffer (pH 7.5, 50 mM Tris-HCl, 140 mM NaCl, 5 mM MgCl2, 10% glycerol (v/v), 1% Nonidet P-40 (v/v), 1 mM dithiothreitol) supplemented with protease inhibitors (1 mM phenylmethyl-sulfonyl fluoride (PMSF), 10 µg/ml leupeptin, 5 µg/ml aprotinin, 1 µg/ml pepstatin A) and phosphatase inhibitors (20 mM NaF, 0.025 mM pervanadate). The samples were cleared by centrifugation and 30 µl (cell lysates) was kept for assessing total protein contents. The remaining was transferred to fresh tubes with 20 µg of either GST, GST-GGA3-PBD, GST-Raf1-RBD or GST-Rhotekin-RBD coupled to glutathione resin and rotated for 1–2 h at 4 °C. […] ImageLab 5.2 software was used to quantify the digital blots as fold of the amount of pulled down protein over total protein. […]

H-Ras = H-Ras (Homo sapiens, UniProt P01112); experiment: GST-Raf1-RBD pull-down of EGFR-mediated H-Ras activation in MDA-MB-231 cells; format: cell-based; set-up: endogenous in cells; host or cells: MDA-MB-231; conditions: 50 μM
Procedure: as §1

T1 sequence (P62330 whole entry, species assumed): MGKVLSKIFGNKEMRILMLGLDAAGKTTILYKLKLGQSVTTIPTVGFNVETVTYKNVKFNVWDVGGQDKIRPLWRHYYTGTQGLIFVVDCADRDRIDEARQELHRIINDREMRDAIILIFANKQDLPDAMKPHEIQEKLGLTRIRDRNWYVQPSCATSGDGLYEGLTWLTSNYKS
H-Ras, sequence (P01112 whole entry): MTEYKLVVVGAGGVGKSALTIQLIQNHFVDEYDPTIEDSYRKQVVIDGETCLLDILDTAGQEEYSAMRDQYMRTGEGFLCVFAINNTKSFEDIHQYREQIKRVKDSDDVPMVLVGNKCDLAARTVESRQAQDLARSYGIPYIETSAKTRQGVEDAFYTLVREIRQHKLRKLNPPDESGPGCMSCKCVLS

| Structure (SMILES) | receptor internalization (AT1R) | ARF6 activity in MDA-MB-231 cells (pull-down) (ARF6) | Ras activity in MDA-MB-231 cells (pull-down) (H-Ras) |
| --- | --- | --- | --- |
| Nn1cnc2scc(-c3ccc(Cc4ccccc4)cc3)c2c1=O [Barbadin, reference compound] | blocked receptor internalization |  |  |
| CC(C)C(=O)N1CCN(c2ccc(NC(=O)c3cc4ccccc4o3)cc2Cl)CC1 [Compound 21] |  | inhibited | inhibited |

From article PMC8333425, “Discovery of a dual Ras and ARF6 inhibitor from a GPCR endocytosis screen” (Nature Communications, 2021)
